Literature values, collected in patent US20050158747A1, “CFTR modifier genes and expressed polypeptides useful in treating cystic fibrosis and methods and products for detecting and/or identifying same” (priority 2003, published 2005).

Tests used:
[1] = system: purinergic receptors in the airway epithelium; conditions: in vitro studies
sodium (Na^+) channels = conditions: aerosolized; initial results

SMILES | chloride (Cl^−) secretion [1] | rate of disease progression, as measured by lung function tests (sodium (Na^+) channels) | safety in trials (sodium (Na^+) channels)
O=c1ccn([C@@H]2O[C@H](COP(=O)(O)OP(=O)(O)OP(=O)(O)O)[C@@H](O)[C@H]2O)c(=O)[nH]1 [UTP] | can stimulate chloride (Cl^−) secretion |  | 
Nc1ncnc2c1ncn2[C@@H]1O[C@H](COP(=O)(O)OP(=O)(O)OP(=O)(O)O)[C@@H](O)[C@H]1O [ATP] | can stimulate chloride (Cl^−) secretion |  | 
N=C(N)NC(=O)c1nc(Cl)c(N)nc1N [amiloride] |  | slight change in the rate of disease progression | safe
